Four compounds from ChEMBL document CHEMBL5727642, “Bicyclic proline compounds” (2020) can be followed below.

Molecules are shown by their SMILES.

The nature of this assay: FLIPR Tetra Assay: IC50 (effective concentration) of compounds on the human and rat TRPA1 channels were determined using a FLIPR Tetra instrument. CHO cells expressing TRPA1 were plated into 384-well plates, incubated overnight at 37° C., and loaded with BD calcium indicator dye for 1 hr at 37° C. followed by 15 minutes. at room temperature. The assay buffer was Hank's Balanced Salt Solution (HBSS) containing 20 mM HEPES (pH readjusted to 7.4) along with 0.02% BSA.Following dye load and plate cool down, compounds were added to the cells using FLIPR Tetra. Plates were then incubated with compounds for 20 minutes at room temperature prior to adding agonist. Following this incubation, ˜EC80 concentration of cinnamaldehyde (75 uM for human TRPA1 and 45 uM for rat TRPA1) was added to active the channels and block of cinnamaldehyde induced calcium influx was measured.
As a reminder, the IC50 is the concentration needed to halve the response being measured. Consider `O=C(NCc1cc(-c2cnc(C(F)(F)F)nc2)cnc1C(F)(F)F)[C@@H]1C2CC(C2)N1S(=O)(=O)c1ccc(F)cc1`, for which the IC50 was found to be 12.1 nM.
For `O=C(NCc1cc(-c2cnc(C(F)(F)F)nc2)c(F)cn1)[C@@H]1C2CC(C2)N1S(=O)(=O)c1ccc(F)c(F)c1`, the IC50 was determined as 10.6 nM.
On to `O=C(NCc1cc(-c2cnc(C(F)(F)F)nc2)ncc1Cl)[C@@H]1C2CC(C2)N1S(=O)(=O)c1ccc(F)cc1`, for which the IC50 came out at 6.08 nM.
As to `O=C(NCc1cc(-c2cnc(C(F)(F)F)nc2)ncc1C1CC1)[C@@H]1C2CC(C2)N1S(=O)(=O)c1ccc(F)cc1`, the IC50 is 16.3 nM.
